Results from PMC11024979 (ACS Omega, 2024).
Read-outs that look alike come from different tables or passages of the source.

How the values were obtained:
[1] = target: anti-cortisol (17) Fab fragment; details: read-out: KD (SPR); determined in previous work ref 9; cited from earlier work
[2] = target: anti-cortisol (17) Fab fragment; experiment: Surface plasmon resonance; format: binding, murine; details: read-out: KD (SPR); determined in this work
[3] = target: anti-cortisol (17) Fab fragment; experiment: Initial ligand screening by native MS; format: binding, murine; details: Fab 0.1 μM, ligand 100 nM to 10 μM
[4] = test system: anti-cortisol (17) Fab fragment; experiment: Native MS direct ligand titration, KD by one-site binding fit; parameters: species or system murine; details: native MS KD ratio

SMILES	Kd [1]	Kd [2]	approximate KD range from initial ligand screening [3]	fold higher KD compared to corticosterone [4]
C[C@]12CC[C@H]3[C@@H](CCC4=CC(=O)CC[C@@]43C)[C@@H]1CC[C@@H]2O [testosterone]	23000 ± 4000 nM			
C[C@]12CCC(=O)C=C1CC[C@@H]1[C@@H]2CC[C@@]2(C)[C@H]1CC[C@]2(O)C(=O)CO [11-deoxycortisol]		120 nM	submicromolar affinity	more than 4 fold
C[C@]12C=CC(=O)C=C1CC[C@@H]1[C@@H]2[C@@H](O)C[C@@]2(C)[C@H]1CC[C@]2(O)C(=O)CO [prednisolone]	13 ± 1 nM		nanomolar range	
C[C@]12CCC(=O)C=C1CC[C@@H]1[C@@H]2[C@@H](O)C[C@@]2(C)[C@H]1CC[C@]2(O)C(=O)CO [cortisol]	7 ± 1 nM		nanomolar range	
CC(=O)[C@H]1CC[C@H]2[C@@H]3CCC4=CC(=O)CC[C@]4(C)[C@H]3CC[C@]12C [progesterone]	15000 ± 3000 nM			
C[C@]12C[C@H](O)[C@H]3[C@@H](CCC4=CC(=O)CC[C@@]43C)[C@@H]1CC[C@@H]2C(=O)CO [corticosterone]	31 ± 2 nM		nanomolar range	
